Reference: US9655902B2, “Guanidine derivatives for the treatment of hepatitis C” (priority 2013, dated 2017)
Read-outs that look alike come from different tables or passages of the source.

Tested on: HCV pseudoparticles (genotype 1a HCV E1 and E2 envelope, H77C isolate)
Experiment: HCV pseudoparticle infection assay (luciferase reporter, Huh7 cells)
Type: cell-based, HCV genotype 1a
Details: Hepatitis C virus, Huh-7, 48 h, read-out: EC50 (1a, nM), genotype 1a HCV pseudoparticles, Huh7 cells, luciferase 2 days after infection

SMILES	EC50 (class symbol)	EC50 (numeric value)
N=C(N)N1CCCN(C(=O)c2ccc(Nc3nc(NC4(c5ccc(Cl)cc5)CC4)nc(OCC(F)(F)F)n3)cc2)CC1 [Compound 1001, 4-(4-(4-(1-(4-chlorophenyl)cyclopropylamino)-6-(2,2,2-trifluoroethoxy)-1,3,5-triazin-2-ylamino)benzoyl)-1,4-diazepane-1-carboximidamide]	0.01 to 10 nM	
N=C(N)NCCC[C@@H](NC(=O)c1ccc(Nc2nc(NC3(c4ccc(Cl)cc4)CC3)nc(OCC(F)(F)F)n2)cc1)C(=O)O [Compound 1002, (R)-2-(4-(4-(1-(4-chlorophenyl)cyclopropylamino)-6-(2,2,2-trifluoroethoxy)-1,3,5-triazin-2-ylamino)benzamido)-5-guanidinopentanoic acid]	0.01 to 10 nM	
N=C(N)NCCC[C@H](NC(=O)c1ccc(Nc2nc(NC3(c4ccc(Cl)cc4)CC3)nc(OCC(F)(F)F)n2)cc1)C(=O)O [Compound 1003, (S)-2-(4-(4-(1-(4-chlorophenyl)cyclopropylamino)-6-(2,2,2-trifluoroethoxy)-1,3,5-triazin-2-ylamino)benzamido)-5-guanidinopentanoic acid]	0.01 to 10 nM	0.711 nM
N=C(N)N1CCCN(C(=O)c2ccc(Nc3nc(NCc4ccc(Cl)cc4)nc(OCC(F)(F)F)n3)cc2)CC1 [Compound 1004, 4-(4-(4-(4-chlorobenzylamino)-6-(2,2,2-trifluoroethoxy)-1,3,5-triazin-2-ylamino)benzoyl)-1,4-diazepane-1-carboximidamide]	10 to 1000 nM	
N=C(N)NCCCCNC(=O)c1ccc(Nc2nc(NCc3ccc(Cl)cc3)nc(OCC(F)(F)F)n2)cc1 [Compound 1005, 4-(4-(4-chlorobenzylamino)-6-(2,2,2-trifluoroethoxy)-1,3,5-triazin-2-ylamino)-N-(4-guanidinobutyl)benzamide]	10 to 1000 nM	29.5 nM
N=C(N)NCCC[C@@H](NC(=O)c1ccc(Nc2nc(NCc3ccc(Cl)cc3)nc(OCC(F)(F)F)n2)cc1)C(=O)O [Compound 1006, (R)-2-(4-(4-(4-chlorobenzylamino)-6-(2,2,2-trifluoroethoxy)-1,3,5-triazin-2-ylamino)benzamido)-5-guanidinopentanoic acid]	10 to 1000 nM	
N=C(N)NCCC[C@H](NC(=O)c1ccc(Nc2nc(NCc3ccc(Cl)cc3)nc(OCC(F)(F)F)n2)cc1)C(=O)O [Compound 1007, (S)-2-(4-(4-(4-chlorobenzylamino)-6-(2,2,2-trifluoroethoxy)-1,3,5-triazin-2-ylamino)benzamido)-5-guanidinopentanoic acid]	10 to 1000 nM	
NC(=O)/N=C(\NC1CCCC1)N1CCN(C(=O)c2ccc(Nc3nc(NC4(c5ccc(Cl)cc5)CC4)nc(OCC(F)(F)F)n3)cc2)CC1 [Compound 1008, N′-carbamoyl-4-(4-(4-(1-(4-chlorophenyl)cyclopropylamino)-6-(2,2,2-trifluoroethoxy)-1,3,5-triazin-2-ylamino)benzoyl)-N-cyclopentylpiperazine-1-carboximidamide]	0.01 to 10 nM	
N#C/N=C(\NC1CCCC1)N1CCN(C(=O)c2ccc(Nc3nc(NC4(c5ccc(Cl)cc5)CC4)nc(OCC(F)(F)F)n3)cc2)CC1 [Compound 1009, 4-(4-(4-(1-(4-chlorophenyl)cyclopropylamino)-6-(2,2,2-trifluoroethoxy)-1,3,5-triazin-2-ylamino)benzoyl)-N′-cyano-N-cyclopentylpiperazine-1-carboximidamide]	0.01 to 10 nM	3.57 nM
NC(=O)/N=C(\N1CCC1)N1CCN(C(=O)c2ccc(Nc3nc(NC4(c5ccc(Cl)cc5)CC4)nc(OCC(F)(F)F)n3)cc2)CC1 [Compound 1010, 1-(azetidin-1-yl(4-(4-(4-(1-(4-chlorophenyl)cyclopropylamino)-6-(2,2,2-trifluoroethoxy)-1,3,5-triazin-2-ylamino)benzoyl)piperazin-1-yl)methylene)urea]	0.01 to 10 nM	
N#C/N=C(\N1CCC1)N1CCN(C(=O)c2ccc(Nc3nc(NC4(c5ccc(Cl)cc5)CC4)nc(OCC(F)(F)F)n3)cc2)CC1 [Compound 1011, N-(azetidin-1-yl(4-(4-(4-(1-(4-chlorophenyl)cyclopropylamino)-6-(2,2,2-trifluoroethoxy)-1,3,5-triazin-2-ylamino)benzoyl)piperazin-1-yl)methylene)cyanamide]	0.01 to 10 nM	
NC(=O)/N=C(\N1CCCCC1)N1CCN(C(=O)c2ccc(Nc3nc(NC4(c5ccc(Cl)cc5)CC4)nc(OCC(F)(F)F)n3)cc2)CC1 [Compound 1012, 1-((4-(4-(4-(1-(4-chlorophenyl)cyclopropylamino)-6-(2,2,2-trifluoroethoxy)-1,3,5-triazin-2-ylamino)benzoyl)piperazin-1-yl)(piperidin-1-yl)methylene)urea]	0.01 to 10 nM	
N#C/N=C(\N1CCCCC1)N1CCN(C(=O)c2ccc(Nc3nc(NC4(c5ccc(Cl)cc5)CC4)nc(OCC(F)(F)F)n3)cc2)CC1 [Compound 1013, N-((4-(4-(4-(1-(4-chlorophenyl)cyclopropylamino)-6-(2,2,2-trifluoroethoxy)-1,3,5-triazin-2-ylamino)benzoyl)piperazin-1-yl)(piperidin-1-yl)methylene)cyanamide]	0.01 to 10 nM	
N=C1NCCN1C(=O)c1ccc(Nc2nc(NC3(c4ccc(Cl)cc4)CC3)nc(OCC(F)(F)F)n2)cc1 [Compound 1014, (4-(4-(1-(4-chlorophenyl)cyclopropylamino)-6-(2,2,2-trifluoroethoxy)-1,3,5-triazin-2-ylamino)phenyl)(2-iminoimidazolidin-1-yl)methanone]	0.01 to 10 nM	3.01 nM
N=C(N)NC[C@H](NC(=O)c1ccc(Nc2nc(NC3(c4ccc(Cl)cc4)CC3)nc(OCC(F)(F)F)n2)cc1)C(=O)O [Compound 1015, (S)-2-(4-(4-(1-(4-chlorophenyl)cyclopropylamino)-6-(2,2,2-trifluoroethoxy)-1,3,5-triazin-2-ylamino)benzamido)-3-guanidinopropanoic acid]	0.01 to 10 nM	
N=C(N)NCCC[C@H](NC(=O)c1ccc(Nc2nc(NC3(c4ccc(Cl)cc4)CC3)nc(OCC(F)(F)F)n2)cc1)C(N)=O [Compound 1016, (S)—N-(1-amino-5-guanidino-1-oxopentan-2-yl)-4-(4-(1-(4-chlorophenyl)cyclopropylamino)-6-(2,2,2-trifluoroethoxy)-1,3,5-triazin-2-ylamino)benzamide]	0.01 to 10 nM	0.352 nM

SMILES	EC50 (class symbol)	EC50 (numeric value)
N=C(N)N1CCCN(C(=O)c2ccc(Nc3nc(NCc4ccc(Cl)cc4)nc(OCc4ccccc4)n3)cc2)CC1 [Compound 1017]	10 to 1000 nM	
N=C(N)N1CCCN(C(=O)c2cccc(Nc3nc(NCc4ccc(Cl)cc4)nc(OCc4ccccc4)n3)c2)CC1 [Compound 1018]	10 to 1000 nM	
N=C(N)NCCC[C@H](NC(=O)c1ccc(Nc2nc(NCc3ccc(Cl)cc3)nc(OCc3ccccc3)n2)cc1)C(=O)N[C@@H](CCC(N)=O)C(=O)O [Compound 1019]	10 to 1000 nM	
N=C(N)NNC(=O)c1ccc(Nc2nc(NCc3ccc(Cl)cc3)nc(OCc3ccccc3)n2)cc1 [Compound 1020]	10 to 1000 nM	175 nM
N=C(N)NNC(=O)c1cccc(Nc2nc(NCc3ccc(Cl)cc3)nc(OCc3ccccc3)n2)c1 [Compound 1021]	> 1000 nM	
N=C(N)NS(=O)(=O)c1ccc(NC(=O)c2ccc(Nc3nc(NCc4ccc(Cl)cc4)nc(OCc4ccccc4)n3)cc2)cc1 [Compound 1022]	10 to 1000 nM	62.5 nM
N=C(N)NS(=O)(=O)c1ccc(NC(=O)c2cccc(Nc3nc(NCc4ccc(Cl)cc4)nc(OCc4ccccc4)n3)c2)cc1 [Compound 1023]	10 to 1000 nM	
N=C(N)NCCCCNC(=O)c1ccc(Nc2nc(NCc3ccc(Cl)cc3)nc(OCc3ccccc3)n2)cc1 [Compound 1024]	10 to 1000 nM	
N=C(N)NCCCCNC(=O)c1cccc(Nc2nc(NCc3ccc(Cl)cc3)nc(OCc3ccccc3)n2)c1 [Compound 1025]	> 1000 nM	4480 nM
N=C(N)N1CCN(C(=O)c2ccc(Nc3nc(NCc4ccc(Cl)cc4)nc(OCc4ccccc4)n3)cc2)CC1 [Compound 1026]	10 to 1000 nM	
N=C(N)N1CCN(C(=O)c2cccc(Nc3nc(NCc4ccc(Cl)cc4)nc(OCc4ccccc4)n3)c2)CC1 [Compound 1027]	10 to 1000 nM	
[2H]C([2H])(Oc1nc(Nc2ccc(C(=O)N[C@@H](CCCNC(=N)N)C(N)=O)cc2)nc(NC2(c3ccc(Cl)cc3)CC2)n1)C(F)(F)F [Compound 1028]	0.01 to 10 nM	
[2H]C([2H])(Oc1nc(Nc2ccc(C(=O)N[C@H](CCCNC(=N)N)C(=O)N[C@@H](Cc3ccccc3)C(=O)O)cc2)nc(NC2(c3ccc(Cl)cc3)CC2)n1)C(F)(F)F [Compound 1029]	0.01 to 10 nM	
[2H]C([2H])(Oc1nc(Nc2ccc(C(=O)N[C@@H](CCCNC(=N)N)C(=O)NCC(N)=O)cc2)nc(NC2(c3ccc(Cl)cc3)CC2)n1)C(F)(F)F [Compound 1030]	0.01 to 10 nM	
[2H]C([2H])(Oc1nc(Nc2ccc(C(=O)N[C@@H](CCCNC(=N)N)C(=O)N[C@@H](CC(N)=O)C(N)=O)cc2)nc(NC2(c3ccc(Cl)cc3)CC2)n1)C(F)(F)F [Compound 1031]	0.01 to 10 nM	
